Data from patent US20220409692A1, “Systems Chemico-Pharmacology Drugs and Methods of Use” (The Medical College of Wisconsin, priority 2019, published 2022).
Values joined by “and” are separate entries in the source; they are usually repeats but may differ in a detail not shown here. Equal values may be shown once. Read-outs that look alike come from different tables or passages of the source. Peptide text beside a SMILES is read from it.

Legend:
RLMVEC = experiment: KYC thiylation of endothelial cell proteins in RLMVEC cultures; type: cell-based, rat
Text: FIG. 29. Effects of Oxidative Stress on KYC Thiylation of RLMVEC Proteins. (A) Streptavidin affinity blot of KYC thiylated proteins from cell lysates prepared from RLMVEC cultures treated with B-KYC (baseline), B-KYC+MPO+H2O2 (MPO-dependent), and B-KYC+H2O2 (H2O2-dependent). (B) Immunoblot for Nrf2 in RLMVEC cultures treated as described in A. (C) Immunoblot for Keap1 in RLMVEC cultures treated as described in A. (D) Immunoblot for HMGB1 in RLMVEC cultures treated as described in A.(E) Immunoblot for β-Actin in RLMVEC cultures treated as described in A.(F) Bar chart showing relative levels of KYC thiylation, Nrf2, Keap1, and HMGB1 as a function of β-Actin (n=2, *=p<0.05, statistical analysis was preformed by ANOVA with appropriate post hoc tests).
FIG. 31. MPO Oxidation of KYC Increases KYC Thiylation of Extracellular HMGB1. […] This conclusion is based on the relative levels of KYC thiylated HMGB1 in panel A vs. KYC thiylated HMGB1 as a function of HMGB1 protein in conditioned media vs. RLMVEC cell lysates.
Rat lung microvascular endothelial cells (RLMVEC) from neonatal Sprague-Dawley rats (RN-6011) and rat endothelial growth medium (EGM, M1266SF) were from Cell Biologics (Chicago, Ill.). Amicon®Ultra-4 centrifugal concentrators with 3K cut-off (UFC800324) were from Merck Millipore Ltd (Carrigtwohill, Ireland). PierceTM Streptavidin (#88816), Protein G (#88848), Protein A Magnetic Beads (#88845), PierceTM ECL Western Blotting Substrate (#32106), and SuperSignalTM West Femto Maximum Sensitivity Substrate (#34095) were from Thermo Fisher Scientific (Waltham, MA). Rabbit antibodies for myeloperoxidase heavy chain (MPO, sc-33596) and TLR4 (sc-10741) were from Santa Cruz Biotechnology (Dallas, Texas). Rabbit antibody for Cl-Tyr (HP5002) was from Hycult Biotech (Plymouth Meeting, PA). The chicken antibody for HMGB1 (326052233) was from SHINO-TEST Corporation (Kanagawa, Japan). Rabbit antibody for RAGE (GTX23611) was from GeneTex (Irvine, CA). Mouse antibodies for PECAM-1/CD31 (ab24590), for 8-OH-dG (ab48508), and for rat endothelial cell antigen-1 (RECA-1, ab9774) were from Abcam (Cambridge, MA). Rabbit antibody for Cox1 (sc-7950) and Cox2 (sc-7951) were from Santa Cruz Biotechnology. Mouse (ab190377) and rabbit (ab77302b) antibodies for HMGB1, and streptavidin-HRP (ab7403) were from Abcam (Cambridge, Mass.). Rabbit antibody for acetylated-HMGB1 (OASG03545) was from Aviva System Biology (San Diego, Calif.). Rabbit antibodies for Nrf2 (sc-722) and TLR4 (sc-30002) were from Santa Cruz Biotechnology (Dallas, Tex.). Rabbit antibody against Keap1 (ABS97) and mouse antibody for β-actin (A2228) were from Millipore-Sigma (St. Louis, Mo.). Rabbit antibody for cysteine sulfonyl (ADI-OSA-820) was from Enzo Life Sciences (Farmingdale, N.Y.). Mouse antibody for glutathionylated proteins (D8) and all other chemicals were from Sigma-Aldrich (St. Louis, Mo.). All antibodies were certified either by the manufacturer or were used previously and certified by the authors, as was the case for the anti-HMGB1 antibody.
Effects of Oxidative Stress on KYC Thiylation on Endothelial Cell Proteins in RLMVEC Cultures: To determine the effects of oxidative stress on KYC thiylation, RLMVEC cultures were treated with B-KYC to follow KYC thiylation with streptavidin-affinity blotting as outlined in Methods. Three different levels of oxidative stress were used to determine the effects of oxidative stress on KYC thiylation of endothelial cell proteins: media alone (baseline); media containing MPO+H2O2 (MPO-dependent); and media containing H2O2 alone (H2O2-dependent) (FIG. 29A). KYC thiylation of RLMVEC proteins at baseline was low (FIG. 29A, first two lanes).

neonatal rat pups = type: in vivo; conditions: for weight gain: P3-P10
Procedure: Data from lung sections and immunoblots from the samples were analyzed for statistical differences using GraphPad Prism version 8.4.3, for Windows (GraphPad Software, La Jolla, Calif.). Quantitative morphometric and cell count data are expressed as mean±SD scatter-plots adjacent to the representative images. Student t-test, or Mann-Whitney U test, was used for comparing two groups wherever appropriate. One-way analysis of variance with post-hoc Student-Newman-Keuls test was used when more than two groups of data were analyzed. Significant differences between groups were determined by either unpaired student's t-test or Mann-Whitney U test, depending on the distribution. Weight gain and survival data were analyzed using MedCalc Statistical Software version 15.2.1 (MedCalc Software bvba, Ostend, Belgium; http://www.medcalc.org). Kaplan-Meier survival curves were plotted using Kaplan-Meier tables constructed in GraphPad Prism. A p-value<0.05 was considered statistically significant.

[1] = test system: lung lysates of neonatal rat pups; experiment: Hyperoxia-induced BPD in neonatal rat pups: immunoblot, affinity blot and pulldown analysis of lung lysates; conditions: for Nrf2 activation: lung lysates
Procedure: The dose of KYC (5 mg/kg twice per day) was chosen based on experience treating chronic inflammation in other disease states (58, 60, 61). […] Equal volumes of PBS were injected i.p. into the remaining half of the pups as an injection control. Pups were euthanized on P10 with carbon dioxide and lungs removed en bloc. A small cut was created on the left atrium and ice-cold normal saline was gently infused through the right ventricle to flush blood from the lungs before inflation for histology or snap-frozen in liquid nitrogen for protein studies. Pups from at least three litters were used in each experiment.
Immunoblot Analysis: Whole lung lysates were obtained by homogenizing in MOPS buffer (20 mM 3-N-morpholino-propanesulfonic acid, 2 mM EGTA, 5 mM EDTA, 30 mM NaF, 10 mM β-glycerophosphate, 10 mM Na pyrophosphate, 2 mM Na orthovanadate, 1 mM PMSF, 0.5% NP-40, 1% protease inhibitor cocktail, and 1% phosphatase inhibitor cocktails 2 and 3, pH 7.0) by Bullet Blender (Next Advance, Inc., Averill Park, N.Y.). For protein immunoblots, 30 μg of protein lysate was separated by SDS-PAGE, transferred to nitrocellulose membranes (0.22 μm), and then probed with the appropriate primary antibodies overnight at 4° C. on a continuously rocking platform. Signals were generated after incubation with horseradish peroxidase-conjugated goat anti-rabbit or anti-mouse IgG (1:8,000) using Western Bright ECL Chemiluminescent HRP Substrate (Advansta Inc., Menlo Park, Calif.). Integrated optical density (IOD) was calculated using ImageJ software and normalized to β-actin, a loading control.

[2] = RLMVEC cultures, baseline vs MPO-dependent vs H2O2-dependent
[3] = normoxic pups, KYC vs untreated
[4] = hyperoxic lungs, KYC vs PBS, P10
[5] = hyperoxic pups treated with KYC, P10, PBS 1.0±0.2
[6] = hyperoxic pups, KYC vs PBS, P10
[7] = lungs of hyperoxic pups, KYC vs PBS

## CC(=O)N[C@@H](CCCCN)C(=O)N[C@@H](Cc1ccc(O)cc1)C(=O)N[C@@H](CS)C(N)=O [KYC, N-acetyl lysyltyrosylcysteine amide] (Ac-Lys-Tyr-Cys-NH2)
RLMVEC; [2]
  HMGB1 expression relative to β-actin: increased in RLMVEC cultures subjected to H2O2-dependent KYC thiylation
  Keap1 expression relative to β-actin: followed a pattern similar to Nrf2
  Nrf2 expression relative to β-actin: increased in RLMVEC cultures subjected to MPO-dependent KYC thiylation
RLMVEC; conditioned media, no KYC vs KYC vs MPO+H2O2+KYC
  KYC thiylation of HMGB1 released from RLMVEC cultures: greater in RLMVEC cultures incubated with MPO+H2O2+KYC
Neonatal rat pups; hyperoxic (>90% O2) neonatal rat pups, KYC 5 mg/kg twice per day i.p., PBS group 82.8%
  survival rate at P10: 97.3% and ~98%
Neonatal rat pups; hyperoxic pups, KYC vs PBS
  survival to P10 (survival analysis): higher probability of surviving to P10
  weight gain: time-dependent changes in weight gain were not significantly different
Neonatal rat pups; [3]
  survival to P10: no significant differences in survival
  weight gain: gained more weight than untreated normoxic pups
[1]; KYC-treated HOX group, P10, PBS-treated HOX 1.0±0.1
  CD31 levels (immunoblot, relative): 1.2±0.3
[1]; hyperoxia exposed rat pup lungs
  Nrf2 levels (FIG. 22): decreased Nrf2 levels
[1]; hyperoxia pups, KYC 5 mg/kg twice per day i.p., P10, PBS 1.0±0.1
  NO2-Tyr levels (immunoblot, relative): 0.6±0.2
[1]; hyperoxia pups, KYC 5 mg/kg twice per day i.p., P10, PBS 1.0±0.3
  MPO levels (immunoblot, relative): 0.6±0.1
[1]; hyperoxia-exposed rat pup lungs
  cell death in lungs (FIG. 20): reduces cell death
[1]; [4]
  reduction of Cl-Tyr formation: approximately 27%
  reduction of MPO protein: approximately 50%
  reduction of NO2-Tyr: approximately 32%
[1]; hyperoxic pups treated with KYC, P10, PBS 1.0±0.1
  TLR4 expression in lungs (immunoblot, relative): 0.8±0.2
[1]; [5]
  HMGB1 levels in lungs (immunoblot, relative): 0.6±0.2
  RAGE expression in lungs (immunoblot, relative): 0.5±0.2
[1]; hyperoxic pups, KYC vs PBS
  HMGB1 isoform in lung lysates (non-acetylated vs lysyl-acetylated): shifted the HMGB1 in lung lysates from the non-acetylated (HMGB1) to the lysyl-acetylated (Ac-HMGB1) isoform
  reduction of pulmonary Cox1: 20-30%
  reduction of pulmonary Cox2: 60-70%
[1]; [6]
  decrease of HMGB1 levels in lung homogenates/lysates: approximately 38%
  increase of CD31 (endothelial cells): approximately 23%
  reduction of RAGE expression: 60%
[1]; hyperoxic pups, relative to PBS-treated
  sulfonyl HMGB1 levels: increased sulfonyl HMGB1 levels
[1]; lung lysates from hyperoxic pups
  S-glutathionylation of Keap1: increased
[1]; lung lysates from hyperoxic pups, KYC vs PBS
  HMGB1 association with TLR4 (HMGB1 pulldown): decreased HMGB1 association with TLR4
[1]; lung lysates from hyperoxic pups, KYC P2-P9 then once B-KYC 5 mg/kg
  B-KYC thiylation of Keap1: increased B-KYC thiylation of Keap1
[1]; hyperoxic pups
  Nrf2 activation: increased Nrf2 activation in lung lysates from hyperoxic pups
[1]; normoxic pups
  Nrf2 activation: increased Nrf2 activation in lung lysates
[1]; [7]
  GST expression: increased
  HMGB1 association with RAGE (HMGB1 pulldown): reduced
  HO-1 expression: increased
  Trx expression: increased
